Measurements reported in PubChem BioAssay (NCI).
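Values below derive from 48-hour exposures of cells grown in 96-well plates, with endpoints linearly interpolated between the two concentrations bracketing the appropriate inhibition level. Abbreviation: GI50, concentration required for 50% inhibition of growth. The concentration for full growth arrest is given as TGI.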

Tests used:
Assay in all cases: inhibition of tumour cell growth, NCI panel, 48 h
HT29 colon = tested on: HT29 colon
MOLT-4 leukemia = tested on: MOLT-4 leukemia
SNB-75 CNS = tested on: SNB-75 CNS
TK-10 renal = tested on: TK-10 renal
U251 CNS = tested on: U251 CNS
RXF 393 renal = tested on: RXF 393 renal
LOX IMVI melanoma = tested on: LOX IMVI melanoma
COLO 205 colon = tested on: COLO 205 colon
HS 578T breast = tested on: HS 578T breast
SR leukemia = tested on: SR leukemia

CCCCCCCCCCCCCC(=O)CBr
TGI (HT29 colon): 30.5 µM | TGI (MOLT-4 leukemia): 2.9 µM | TGI (SNB-75 CNS): 16 µM | TGI (TK-10 renal): 29.7 µM | TGI (U251 CNS): 28.8 µM | TGI (RXF 393 renal): 10.5 µM | TGI (LOX IMVI melanoma): 23 µM | TGI (COLO 205 colon): 30.1 µM | TGI (HS 578T breast): 52.4 µM

Cc1cc(=O)oc2cc3c(cc12)Oc1ccccc1O3
TGI (HT29 colon): > 100 µM | TGI (MOLT-4 leukemia): > 100 µM | TGI (SR leukemia): > 100 µM | TGI (SNB-75 CNS): 59.9 µM | TGI (TK-10 renal): > 100 µM | TGI (U251 CNS): > 100 µM | TGI (RXF 393 renal): > 100 µM | TGI (LOX IMVI melanoma): > 100 µM | TGI (COLO 205 colon): > 100 µM

COc1ccc2oc3cccc(NCCN(C)C)c3c(=O)c2c1
TGI (HT29 colon): 20.3 µM | TGI (MOLT-4 leukemia): 12.7 µM | TGI (SR leukemia): 27.1 µM | TGI (SNB-75 CNS): 31 µM | TGI (TK-10 renal): 28.2 µM | TGI (U251 CNS): 25.3 µM | TGI (RXF 393 renal): 26.4 µM | TGI (LOX IMVI melanoma): 22.7 µM | TGI (COLO 205 colon): 19.1 µM

COc1ccc(-c2cncn2-c2ccc(OC)cc2)cc1
GI50 (TK-10 renal): 17.4 µM | TGI (TK-10 renal): 41.9 µM | GI50 (U251 CNS): 25.3 µM | TGI (U251 CNS): > 100 µM | GI50 (RXF 393 renal): 376 nM | TGI (RXF 393 renal): 9.46 µM | GI50 (LOX IMVI melanoma): 29.6 µM | TGI (LOX IMVI melanoma): > 100 µM | GI50 (HS 578T breast): 17.5 µM | TGI (HS 578T breast): 56 µM

O=C(CSC(=S)N1CCOCC1)Nc1nc2c(s1)CCCC2
TGI (HT29 colon): > 100 µM | TGI (MOLT-4 leukemia): > 100 µM | TGI (SR leukemia): > 100 µM | TGI (SNB-75 CNS): > 100 µM | TGI (TK-10 renal): > 100 µM | TGI (U251 CNS): > 100 µM | TGI (LOX IMVI melanoma): > 100 µM | TGI (COLO 205 colon): > 100 µM

O=C1CC[C@@H](S(=O)(=O)c2ccccc2)[C@@H](/C=C/c2ccccc2)O1
TGI (HT29 colon): > 100 µM | TGI (MOLT-4 leukemia): > 100 µM | TGI (SR leukemia): > 100 µM | TGI (SNB-75 CNS): > 100 µM | TGI (TK-10 renal): > 100 µM | TGI (U251 CNS): > 100 µM | TGI (RXF 393 renal): > 100 µM | TGI (LOX IMVI melanoma): > 100 µM | TGI (COLO 205 colon): > 100 µM

COc1cc(/C=C/C(=O)c2sc(Nc3ccccc3)nc2C)ccc1O
TGI (HT29 colon): > 100 µM | TGI (MOLT-4 leukemia): > 100 µM | TGI (SNB-75 CNS): 84.8 µM | TGI (TK-10 renal): > 100 µM | TGI (U251 CNS): > 100 µM | TGI (RXF 393 renal): > 100 µM | TGI (LOX IMVI melanoma): > 100 µM | TGI (COLO 205 colon): > 100 µM

O=c1cc(-c2ccccc2)c2cc3c(=O)ccoc3cc2o1
TGI (HT29 colon): > 100 µM | TGI (MOLT-4 leukemia): > 100 µM | TGI (SR leukemia): > 100 µM | TGI (SNB-75 CNS): 90.3 µM | TGI (TK-10 renal): > 100 µM | TGI (U251 CNS): > 100 µM | TGI (RXF 393 renal): > 100 µM | TGI (LOX IMVI melanoma): > 100 µM | TGI (COLO 205 colon): > 100 µM

CC(=O)c1cc([N+](=O)[O-])ccc1OCC(=O)O
TGI (HT29 colon): > 100 µM | TGI (MOLT-4 leukemia): > 100 µM | TGI (SNB-75 CNS): > 100 µM | TGI (TK-10 renal): > 100 µM | TGI (U251 CNS): > 100 µM | TGI (RXF 393 renal): > 100 µM | TGI (LOX IMVI melanoma): > 100 µM | TGI (COLO 205 colon): > 100 µM

N#C/C(=C\c1cccc(O)c1)C(N)=O
TGI (HT29 colon): > 100 µM | TGI (MOLT-4 leukemia): > 100 µM | TGI (SNB-75 CNS): 95.4 µM | TGI (TK-10 renal): > 100 µM | TGI (U251 CNS): > 100 µM | TGI (RXF 393 renal): > 100 µM | TGI (LOX IMVI melanoma): > 100 µM | TGI (COLO 205 colon): > 100 µM

COc1cccc(C2c3cc4c(cc3OC(O)(CO)C2C(=O)O)OCO4)c1 (stereo not drawn) (tested in a mixture with another compound)
TGI (HT29 colon): > 100 µM | TGI (MOLT-4 leukemia): > 100 µM | TGI (SR leukemia): > 100 µM | TGI (SNB-75 CNS): 54 µM | TGI (TK-10 renal): > 100 µM | TGI (U251 CNS): 62.2 µM | TGI (RXF 393 renal): > 100 µM | TGI (LOX IMVI melanoma): > 100 µM | TGI (COLO 205 colon): > 100 µM

CC1S(=O)(=O)OCCOS1(=O)=O
TGI (HT29 colon): > 100 µM | TGI (MOLT-4 leukemia): > 100 µM | TGI (SNB-75 CNS): > 100 µM | TGI (TK-10 renal): > 100 µM | TGI (U251 CNS): > 100 µM | TGI (RXF 393 renal): > 100 µM | TGI (LOX IMVI melanoma): > 100 µM | TGI (COLO 205 colon): > 100 µM

N[C@H](C(=O)O)[C@H](Cl)CC(=O)O
TGI (HT29 colon): > 100 µM | TGI (MOLT-4 leukemia): > 100 µM | TGI (SNB-75 CNS): > 100 µM | TGI (TK-10 renal): > 100 µM | TGI (U251 CNS): > 100 µM | TGI (RXF 393 renal): > 100 µM | TGI (LOX IMVI melanoma): > 100 µM | TGI (COLO 205 colon): > 100 µM

COc1ccc(-c2cn(-c3ccccc3)c(-c3ccccc3)n2)cc1OC
GI50 (HT29 colon): 4.5 µM | TGI (HT29 colon): > 100 µM | GI50 (MOLT-4 leukemia): 2960 nM | TGI (MOLT-4 leukemia): 10.9 µM | GI50 (SNB-75 CNS): 13.6 µM | TGI (SNB-75 CNS): 28.5 µM | GI50 (TK-10 renal): 12.2 µM | TGI (TK-10 renal): 26.1 µM | GI50 (U251 CNS): 2.46 µM | TGI (U251 CNS): 10.6 µM | GI50 (LOX IMVI melanoma): 3.08 µM | TGI (LOX IMVI melanoma): 11.7 µM | GI50 (COLO 205 colon): 2680 nM | TGI (COLO 205 colon): 12.3 µM | GI50 (HS 578T breast): 5.68 µM | TGI (HS 578T breast): > 100 µM

O=C(CN1CCN(c2ccccc2)CC1)N1CCc2c([nH]c3ccccc23)C1c1cccnc1 (stereo not drawn)
TGI (HT29 colon): > 100 µM | TGI (MOLT-4 leukemia): > 100 µM | TGI (SR leukemia): > 100 µM | TGI (SNB-75 CNS): 23.4 µM | TGI (TK-10 renal): > 45.7 µM | TGI (U251 CNS): 42.2 µM | TGI (RXF 393 renal): 49.5 µM | TGI (LOX IMVI melanoma): > 100 µM | TGI (COLO 205 colon): > 100 µM

CCOC(=O)NN1C(=O)C(=P(c2ccccc2)(c2ccccc2)c2ccccc2)C(C(=O)OCC)=C1C
TGI (HT29 colon): > 100 µM | TGI (MOLT-4 leukemia): > 100 µM | TGI (SR leukemia): > 100 µM | TGI (SNB-75 CNS): > 100 µM | TGI (TK-10 renal): > 100 µM | TGI (U251 CNS): > 100 µM | TGI (RXF 393 renal): > 100 µM | TGI (LOX IMVI melanoma): > 100 µM | TGI (COLO 205 colon): > 100 µM

CC(=O)n1c2ccccc2c2nc3nc(Oc4ccc(C)cc4)c4ccccc4c3cc21
TGI (HT29 colon): > 100 µM | TGI (MOLT-4 leukemia): > 100 µM | TGI (SR leukemia): > 100 µM | TGI (SNB-75 CNS): > 100 µM | TGI (U251 CNS): > 100 µM | TGI (LOX IMVI melanoma): > 100 µM | TGI (COLO 205 colon): > 100 µM

O=C(O)c1cc(=O)c2[nH]c3ccccc3c2s1
TGI (MOLT-4 leukemia): > 100 µM | TGI (SNB-75 CNS): > 100 µM | TGI (TK-10 renal): > 100 µM | TGI (RXF 393 renal): > 100 µM | TGI (COLO 205 colon): > 100 µM

CCCCCCCCCCCCCCCCCCCCCC(=O)Nc1ccn(C2OC(CO)C(O)C2O)c(=O)n1 (stereo not drawn)
TGI (HT29 colon): > 100 µM | TGI (MOLT-4 leukemia): > 37.1 µM | TGI (SR leukemia): 26.8 µM | TGI (SNB-75 CNS): > 100 µM | TGI (TK-10 renal): > 100 µM | TGI (U251 CNS): > 100 µM | TGI (RXF 393 renal): > 100 µM | TGI (LOX IMVI melanoma): > 100 µM | TGI (COLO 205 colon): > 100 µM

Cc1ccc(NC(=O)/C(=N\Nc2ccc([N+](=O)[O-])cc2[N+](=O)[O-])C2C(=O)NC(=O)NC2=O)cc1
TGI (HT29 colon): > 100 µM | TGI (SR leukemia): > 100 µM | TGI (SNB-75 CNS): > 100 µM | TGI (TK-10 renal): > 100 µM | TGI (U251 CNS): > 100 µM | TGI (RXF 393 renal): > 100 µM | TGI (LOX IMVI melanoma): > 100 µM | TGI (COLO 205 colon): > 100 µM

CCC12CCCC(=O)N1C(CO)C(c1ccccc1)O2 (stereo not drawn)
TGI (HT29 colon): > 100 µM | TGI (SR leukemia): > 100 µM | TGI (SNB-75 CNS): > 100 µM | TGI (TK-10 renal): > 100 µM | TGI (U251 CNS): > 100 µM | TGI (RXF 393 renal): > 100 µM | TGI (LOX IMVI melanoma): > 100 µM | TGI (COLO 205 colon): > 100 µM

CC(=O)OCC1OC(n2ccc(=O)[nH]c2=O)C(OC(C)=O)C1OC(C)=O (stereo not drawn)
GI50 (HT29 colon): > 100 µM | TGI (HT29 colon): > 100 µM | GI50 (SNB-75 CNS): > 100 µM | TGI (SNB-75 CNS): > 100 µM | GI50 (TK-10 renal): > 100 µM | TGI (TK-10 renal): > 100 µM | GI50 (U251 CNS): > 100 µM | TGI (U251 CNS): > 100 µM | GI50 (RXF 393 renal): > 100000 nM | TGI (RXF 393 renal): > 100 µM | GI50 (LOX IMVI melanoma): > 100 µM | TGI (LOX IMVI melanoma): > 100 µM | GI50 (COLO 205 colon): > 100000 nM | TGI (COLO 205 colon): > 100 µM | GI50 (HS 578T breast): > 100 µM | TGI (HS 578T breast): > 100 µM

CCCCCCCCCc1cc(=O)c2ccc(O)cc2o1
TGI (HT29 colon): > 100 µM | TGI (MOLT-4 leukemia): > 100 µM | TGI (SR leukemia): > 100 µM | TGI (SNB-75 CNS): 56.4 µM | TGI (TK-10 renal): 91.3 µM | TGI (U251 CNS): > 100 µM | TGI (RXF 393 renal): > 100 µM | TGI (LOX IMVI melanoma): > 100 µM | TGI (COLO 205 colon): > 100 µM
